Assay results: paper PMC7616177, “From structure to clinic: Design of a muscarinic M1 receptor agonist with the potential to treat Alzheimer’s disease” (Cell, 2021)
pEC50: −log10 of the molar value.

Tests used:
[1] = target: T1, M3-receptor (Homo sapiens, UniProt P20309); assay: [3H]-NMS equilibrium radioligand binding, M3
T1 construct: expressed in transfected cells
Experimental: Non-specific binding (NSB) was determined in the presence of 1 μM atropine). Reactions were terminated by rapid filtration onto GF/B filter paper (Whatman, Maidstone, UK) and three washes with 3 mL ice-cold 0.9% NaCl using a Brandel harvester (M-24TI; Brandel, Fort Lauderdale, FL). Membrane bound radioactivity was determined by liquid scintillation (Ultima Gold; PerkinElmer) counting.
Data was analyzed using PRISM (GraphPad). For saturation binding, non-specific and total binding data were analyzed to a one site binding model. DPM was converted to fmol/mg to compare across constructs. […] […] The Cheng Prusoff equation was used to estimate pKi ([Cheng and Prusoff, 1973]).

[2] = target: T2, M1-receptor (Gq/11 protein-coupling) in cortical membranes (Mus musculus, UniProt P12657); assay: [35S]-GTPγS binding / Gq/11 protein-coupling in mouse cortical membranes; assay type: biochemical
T2 construct: Wild-type or M1-KO mice ([Bradley et al., 2017]) (8-12 weeks) were humanely killed and cortical tissue was dissected on ice; from tissue; host or cells: mouse cortex membranes
T2 sequence (P12657 1-460): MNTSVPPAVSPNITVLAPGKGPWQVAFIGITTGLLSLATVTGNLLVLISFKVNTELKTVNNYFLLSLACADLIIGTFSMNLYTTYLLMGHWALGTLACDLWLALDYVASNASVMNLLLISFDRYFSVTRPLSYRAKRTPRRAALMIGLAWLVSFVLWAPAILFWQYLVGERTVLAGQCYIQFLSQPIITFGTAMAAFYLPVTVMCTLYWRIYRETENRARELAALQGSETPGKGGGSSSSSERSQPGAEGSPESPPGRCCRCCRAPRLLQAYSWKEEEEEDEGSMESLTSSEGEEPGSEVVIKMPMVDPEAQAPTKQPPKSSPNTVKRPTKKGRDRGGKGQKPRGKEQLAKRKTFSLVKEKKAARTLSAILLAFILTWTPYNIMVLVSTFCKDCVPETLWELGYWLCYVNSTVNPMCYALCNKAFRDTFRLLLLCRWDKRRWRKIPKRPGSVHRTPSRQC
Experimental: Wild-type or M1-KO mice ([Bradley et al., 2017]) (8-12 weeks) were humanely killed and cortical tissue was dissected on ice. Tissue was suspended in ice-cold buffer A (containing 0.9% (w/v) NaCl, 10 mM HEPES, 0.2% (w/v) EDTA, pH 7.4) and homogenized (4 ×5s bursts) using a Polytron homogenizer. The suspension was centrifuged at 200 xg for 5 min at 4°C using an Eppendorf 5810R bench-top centrifuge. Supernatants were collected and re-homogenized as above. The suspension was subsequently centrifuged for 20 min at 40,000 xg at 4°C using a Beckman Coulter Avanti JXN-26 centrifuge with a JA-25.25 rotor. Supernatant was discarded, and the pellet was re-suspended in 10 mL ice-cold buffer B (10 mM HEPES, 10 mM EDTA, pH 7.4). The pellet was homogenized, GTP (1 mM final) was added and the suspension was incubated at 37° C for 15 min. The suspension was subsequently centrifuged for 20 min at 40,000 xg at 4°C and the pellet was re-suspended in 15 mL ice-cold buffer C (10 mM HEPES, 0.1 mM EDTA, pH 7.4) and re-homogenized as before. Suspension was centrifuged again for 20 min at 40,000 xg at 4°C. The final pellet was re-suspended in buffer C and protein concentration was estimated using a Bradford assay and this resuspended homogenate further diluted in buffer C to produce a concentration of 2 mg/mL. This preparation is the membrane preparation used in the [^35S]-GTPγS binding assay described below.
[^35S]-GTPγS binding and immunoprecipitation of Gα subunits was performed as previously described ([Bradley et al., 2017]). Specifically, wild-type or M1-KO membranes were diluted in assay buffer (in mM: HEPES, 10; NaCI, 100; MgCl2, 10; pH 7.4) containing a final concentration of 1 μM GDP. Membranes (75 μg in a total assay volume of […]) were added to [^35S]-GTPγS (1 μM final concentration) and agonists (CCh or CNO) and incubated at 30°C for 5 min. Reactions were terminated by the addition of 1 mL ice-cold assay buffer and immediate transfer to an ice bath. […] Recovered beads were then mixed with 1 mL FloScint-IV scintillation cocktail and counted by liquid scintillation spectrometry.

[3] = target: T3, rat M1-receptor (Rattus norvegicus, UniProt P08482); assay: Recombinant rat M1-receptor functional assay; assay type: cell-based
T3 construct: expressed in transfected cells; host or cells: not described
T3 sequence (P08482 whole entry): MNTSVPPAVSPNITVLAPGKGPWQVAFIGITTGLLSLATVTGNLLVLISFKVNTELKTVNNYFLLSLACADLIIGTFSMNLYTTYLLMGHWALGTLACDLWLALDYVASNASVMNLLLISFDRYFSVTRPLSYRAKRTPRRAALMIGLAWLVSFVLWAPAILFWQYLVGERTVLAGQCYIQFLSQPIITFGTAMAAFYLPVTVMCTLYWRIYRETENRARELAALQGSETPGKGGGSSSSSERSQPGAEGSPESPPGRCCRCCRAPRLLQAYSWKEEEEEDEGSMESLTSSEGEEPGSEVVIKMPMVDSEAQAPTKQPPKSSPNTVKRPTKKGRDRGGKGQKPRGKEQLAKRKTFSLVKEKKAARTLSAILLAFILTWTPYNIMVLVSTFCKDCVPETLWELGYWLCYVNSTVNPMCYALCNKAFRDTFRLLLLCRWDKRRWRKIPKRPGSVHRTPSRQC

T1 sequence (P20309 whole entry): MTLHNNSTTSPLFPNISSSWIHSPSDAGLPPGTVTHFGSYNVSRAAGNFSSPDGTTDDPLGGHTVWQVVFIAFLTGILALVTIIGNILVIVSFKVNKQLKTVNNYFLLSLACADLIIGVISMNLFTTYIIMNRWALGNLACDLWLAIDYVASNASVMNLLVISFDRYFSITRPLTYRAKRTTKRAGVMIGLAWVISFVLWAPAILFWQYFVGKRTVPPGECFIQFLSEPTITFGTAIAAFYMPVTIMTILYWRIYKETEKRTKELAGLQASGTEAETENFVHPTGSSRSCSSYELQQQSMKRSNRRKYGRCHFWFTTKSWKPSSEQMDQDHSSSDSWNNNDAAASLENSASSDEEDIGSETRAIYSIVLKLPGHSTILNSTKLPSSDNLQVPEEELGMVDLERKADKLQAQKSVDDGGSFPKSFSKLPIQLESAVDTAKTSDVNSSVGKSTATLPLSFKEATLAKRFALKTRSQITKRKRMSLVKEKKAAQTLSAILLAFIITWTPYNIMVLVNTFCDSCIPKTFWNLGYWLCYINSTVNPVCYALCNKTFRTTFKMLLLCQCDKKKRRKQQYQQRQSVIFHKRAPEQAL

CCOC(=O)N1CCC[C@H](N2CCC(C(=O)NC3(C)CCC3)CC2)CC1 [HTL9936, ethyl (S)-4-(4-((1-methylcyclobutyl)carbamoyl)piperidin-1-yl)azepane-1-carboxylate] was tested, and the “Binding to the M3-receptor” value [1] was “no detectable binding”, the pEC50 [2] was 5.60 and the “Gq/11 protein-coupling Emax” value ([2]; cortical membranes, wild-type mice, n = 3) was 76 % of the oxotremorine-M response. For the same compound, the “Gq/11 protein-coupling in M1-receptor KO membranes” value ([2]; membranes from M1-receptor KO animals) was “absent” and the “Agonist behaviour at the rat receptor” value [3] was “partial agonist”.
